Measured values reported in patent US20230123334A1, “AMINO LIPID COMPOUND, PREPARATION METHOD THEREFOR, AND APPLICATION THEREOF” (SHENZHEN SHENXIN BIOTECHNOLOGY CO., LTD., priority 2020, published 2023).

Tested on: HEK293 cells
Assay: Preliminary screening as DNA vectors, GFP transfection of HEK293 cells
Type: cell-based
In short: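 Lipid + DOPE liposomes (NaOAc, pH 5.6) complexed w/ 75 ng psin-EGFP-IRES-Puro, 30 min RT; added to 3-5×10^4 HEK293/well, 37° C. Hoechst 0.2 μg/mL at 20-24 h, imaged after further 20-24 h. Efficiency = GFP+ cells / total nuclei.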

[1] = amino lipid/DOPE liposome with 75 ng plasmid DNA (psin-EGFP-IRES-Puro), number of GFP-expressing cells divided by total nuclei (Hoechst)

| Compound | Absolute DNA transfection efficiency in HEK293 cells [1] [%] | Absolute DNA transfection efficiency in HEK293 cells (HEK293 cells, lipid/DOPE liposome with 75 ng plasmid DNA (psin-EGFP-IRES-Puro), number of cells expressing GFP divided by total number of nuclei (Hoechst)) [%] |
| --- | --- | --- |
| CCCCCCCCCCCCCCCCCCSc1nc(NCCCCCCCCCCCCC)nc(NCCN2CCCC2)n1 [S18N13 D3] | 2.8 |  |
| CCCCCCCCCCCNc1nc(NCC2CCN(C)CC2)nc(SCCCCCCCCCC)n1 [S10N11 D10] | 5.4 |  |
| CCCCCCCCCCCCN(CCCCCCCCCCCC)c1nc(NCCN2CCCCC2)nc(SCCCCCCCCCC)n1 [S10^2N12 D4] | 0.1 |  |
| CCCCCCCCCCCCCCCSc1nc(NCCCCCC)nc(NCCN(CC)CC)n1 [S15N6 D7] | 5.1 |  |
| CCCCCCCCCCCCCCCNc1nc(NCCCN(C)C)nc(SCCCCCCCCC)n1 [S9N15 D6] | 13.4 |  |
| CCCCCCCCCCCSc1nc(NCCCCCC)nc(NCCN2CCOCC2)n1 [S11N6 D2] | 19.0 |  |
| CCCCCCCCCCCCCCCCSc1nc(NCCCCCCCCCCCC)nc(NCCN2CCCC2)n1 [S16N12 D3] | 3.9 |  |
| CCCCCCCCCCCNc1nc(NCCN2CCCC2)nc(SCCCCCCCCCC)n1 [S10N11 D3] | 12.6 |  |
| CCCCCCCNc1nc(NCCN2CCOCC2)nc(SCCCCCC)n1 [S6N7 D2] | 0.0 |  |
| CCCCCCCCCCCNc1nc(NCC2CCN(C)CC2)nc(SCCCCCCCC)n1 [S8N11 D10] | 46.3 |  |
| CCCCCCCCCCCNc1nc(NCCN(CC)CC)nc(SCCCCCCCCCCC)n1 [S11N11 D7] | 6.8 |  |
| CCCCCCCNc1nc(NCCN2CCN(C)CC2)nc(SCCCCCC)n1 [S6N7 D5] | 3.7 |  |
| CCCCCCCCCCCSc1nc(NCCN2CCCC2)nc(SCCCCCC)n1 [S6S11 D3] | 12.4 |  |
| CCCCCCCCCCCCCCCNc1nc(NCCN2CCCC2)nc(SCCCCCCC)n1 [S7N15 D3] | 31.4 |  |
| CCCCCCCCCCCCCCCSc1nc(NCCCCCC)nc(NCCCN(C)C)n1 [S15N6 D6] | 34.2 |  |
| CCCCCCCCCCCCCCCCCCSc1nc(NCCCCCCCC)nc(NCC2CCN(C)CC2)n1 [S18N8 D10] | 11.7 |  |
| CCCCCCCCCCCCCCCCCCSc1nc(NCCCCCCCCC)nc(NCCCN(C)C)n1 [S18N9 D6] | 19.5 |  |
| CCCCCCCCCCCCCCCNc1nc(NCCCN2CCOCC2)nc(SCCCCCCCCC)n1 [S9N15 D8] | 5.3 |  |
| CCCCCCCCCCCCCCCCSc1nc(NCCCCCC)nc(NCCN2CCCC2)n1 [S16N6 D3] | 35.3 |  |
| CCCCCCCCCCCCCCCCSc1nc(NCCCCCC)nc(NCCN2CCCCC2)n1 [S16N6 D4] | 6.0 |  |
| CCCCCCCCCCCSc1nc(NCCCCCCCC)nc(NCCN2CCN(C)CC2)n1 [S11N8 D5] | 19.3 |  |
| CCCCCCCCCCCCCNc1nc(NCCN(C)C)nc(SCCCCCCCCCC)n1 [S10N13 D1] | 6.1 |  |
| CCCCCCCCCCCCSc1nc(NCCCCCCC)nc(NCCN2CCCC2)n1 [S12N7 D3] | 3.2 |  |
| CCCCCCCCCCCCCCCCCCNc1nc(NCCN2CCN(C)CC2)nc(SCCCCCCCCCCCC)n1 [S12N18 D5] | 0.6 |  |

| Compound | Absolute DNA transfection efficiency in HEK293 cells [1] [%] | Absolute DNA transfection efficiency in HEK293 cells (HEK293 cells, lipid/DOPE liposome with 75 ng plasmid DNA (psin-EGFP-IRES-Puro), number of cells expressing GFP divided by total number of nuclei (Hoechst)) [%] |
| --- | --- | --- |
| CCCCCCCCCCCCCCCNc1nc(NCCCN2CCOCC2)nc(SCCCCCCCCCCCCCC)n1 [S14N15 D8] | 0.3 |  |
| CCCCCCCCCCCCCCCSc1nc(NCCCCCCCCCCC)nc(NCCN2CCCCC2)n1 [S15N11 D4] | 8.9 |  |
| CCCCCCCCCCCCCCSc1nc(NCCN(CC)CC)nc(SCCCCCCC)n1 [S7S14 D7] | 4.0 |  |
| CCCCCCCCCCCCCCCSc1nc(NCC2CCN(C)CC2)nc(N(CCCCCCCCCCCC)CCCCCCCCCCCC)n1 [S15^2N12 D10] | 1.0 |  |
| CCCCCCCCCCCCCCCCCCSc1nc(NCCCCCCCCCCCCC)nc(NCCN(C)C)n1 [S18N13 D1] | 1.3 |  |
| CCCCCCCCNc1nc(NCC2CCN(C)CC2)nc(SCCCCCCCC)n1 [S8N8 D10] | 6.1 |  |
| CCCCCCCCSc1nc(NCCCCCC)nc(NCCN2CCCCC2)n1 [S8N6 D4] | 2.6 |  |
| CCCCCCCCCCCCSc1nc(NCCN(C)C)nc(SCCCCCCC)n1 [S7S12 D1] | 8.2 |  |
| CCCCCCCSc1nc(NCCN(CC)CC)nc(SCCCCCCC)n1 [S7S7 D7] | 9.3 |  |
| CCCCCCCCCCCSc1nc(NCCN2CCCC2)nc(SCCCCCCCC)n1 [S8S11 D3] | 6.1 |  |
| CCCCCCCCCNc1nc(NCCN2CCCCC2)nc(SCCCCCCCC)n1 [S8N9 D4] | 15.5 |  |
| CCCCCCCCCCCCSc1nc(NCCN(CC)CC)nc(N(CCCCCCCCCCCC)CCCCCCCCCCCC)n1 [S12^2N12 D7] | 0.1 |  |
| CCCCCCCCCCCCCCCCSc1nc(NCCCCCC)nc(NCCN(C)C)n1 [S16N6 D1] | 8.0 |  |
| CCCCCCCCNc1nc(NCCN2CCCCC2)nc(SCCCCCC)n1 [S6N8 D4] | 1.7 |  |
| CCCCCCCCCCCCCCCNc1nc(NCC2CCN(C)CC2)nc(SCCCCCCCCCCCC)n1 [S12N15 D10] | 4.0 |  |
| CCCCCCCCCCCCCCSc1nc(NCCCCCCCCCCC)nc(NCCCN2CCN(C)CC2)n1 [S14N11 D9] | 10.2 |  |
| CCCCCCCCCCCNc1nc(NCCCN2CCN(C)CC2)nc(SCCCCCCCC)n1 [S8N11 D9] | 63.6 |  |
| CCCCCCCCCCCCCCCCCCNc1nc(NCC2CCN(C)CC2)nc(SCCCCCCCCC)n1 [S9N18 D10] | 11.2 |  |
| CCCCCCCCCCCCNc1nc(NCCN2CCN(C)CC2)nc(SCCCCCCC)n1 [S7N12 D5] | 35.1 |  |
| CCCCCCCCCCCCSc1nc(NCCCCCCCC)nc(NCCN(C)C)n1 [S12N8 D1] | 6.0 |  |
| CCCCCCCCCCCCCCCNc1nc(NCCN(CC)CC)nc(SCCCCCCCCCCCC)n1 [S12N15 D7] | 3.6 |  |
| CCCCCCCCCCCCSc1nc(NCCN(CC)CC)nc(SCCCCCC)n1 [S6S12 D7] | 6.6 |  |
| CCCCCCCNc1nc(NCCCN2CCN(C)CC2)nc(SCCCCCCC)n1 [S7N7 D9] | 10.9 |  |
| CCCCCCCCCCCCCCCCNc1nc(NCCCN2CCN(C)CC2)nc(SCCCCCCCC)n1 [S8N16 D9] | 9.7 |  |

| Compound | Absolute DNA transfection efficiency in HEK293 cells [1] [%] | Absolute DNA transfection efficiency in HEK293 cells (HEK293 cells, lipid/DOPE liposome with 75 ng plasmid DNA (psin-EGFP-IRES-Puro), number of cells expressing GFP divided by total number of nuclei (Hoechst)) [%] |
| --- | --- | --- |
| CCCCCCCCCCCCCCCCSc1nc(NCCCCCCCCCCCCCCC)nc(NCCCN(C)C)n1 [S16N15 D6] | 0.0 |  |
| CCCCCCCCCCCCCCCNc1nc(NCCCN2CCOCC2)nc(SCCCCCCCCCCC)n1 [S11N15 D8] | 0.1 |  |
| CCCCCCCCCCCSc1nc(NCCCCCCC)nc(NCCN2CCCC2)n1 [S11N7 D3] | 19.4 |  |
| CCCCCCCCCCCCCCSc1nc(NCCCCCCCCCCC)nc(NCCN2CCOCC2)n1 [S14N11 D2] | 12.5 |  |
| CCCCCCCCCCCCCCCCCCSc1nc(NCCCCCCC)nc(NCCN2CCCCC2)n1 [S18N7 D4] | 3.5 |  |
| CCCCCCCCCCCCCCSc1nc(NCCCCCCCCCCCCC)nc(NCCN2CCOCC2)n1 [S14N13 D2] | 0.0 |  |
| CCCCCCCCCCSc1nc(NCC2CCN(C)CC2)nc(SCCCCCC)n1 [S6S10 D10] | 14.9 |  |
| CCCCCCCCCCCSc1nc(NCCCCCCCC)nc(NCCCN(C)C)n1 [S11N8 D6] | 36.9 |  |
| CCCCCCCCCCCCCCSc1nc(NCCCCCCCC)nc(NCCN2CCCCC2)n1 [S14N8 D4] | 2.6 |  |
| CCCCCCCCCCCCSc1nc(NCCCN2CCOCC2)nc(SCCCCCCCC)n1 [S8S12 D8] | 34.4 |  |
| CCCCCCCCCCCCSc1nc(NCCCCCC)nc(NCCCN2CCN(C)CC2)n1 [S12N6 D9] | 0.3 |  |
| CCCCCCCCCCSc1nc(NCCCCCCCC)nc(NCCN(CC)CC)n1 [S10N8 D7] | 2.0 |  |
| CCCCCCCCCCCCCCSc1nc(NCCCCCCCCCCC)nc(NCCCN2CCOCC2)n1 [S14N11 D8] | 2.2 |  |
| CCCCCCCCCCCCCCCCCCSc1nc(NCCCCCCCCCCCCCCCC)nc(NCCCN2CCN(C)CC2)n1 [S18N16 D9] | 0.0 |  |
| CCCCCCCCCCCCN(CCCCCCCCCCCC)c1nc(NCCCCCCCCCCC)nc(NCCN(C)C)n1 [Compound N112N12D1] |  | 0.7 |
| CCCCCCCCCCCCCCCCCCNc1nc(NCCN(CC)CC)nc(SCCCCCCCCCCCCCC)n1 [S14N18 D7] | 1.2 |  |
| CCCCCCCCCCSc1nc(NCCCCCCCCC)nc(NCCN2CCCC2)n1 [S10N9 D3] | 4.9 |  |
| CCCCCCCCCCSc1nc(NCCN2CCCC2)nc(SCCCCCC)n1 [S6S10 D3] | 4.4 |  |
| CCCCCCCCCCCCCCCNc1nc(NCCN(C)C)nc(SCCCCCCCCCCCCCC)n1 [S14N15 D1] | 0.4 |  |
| CCCCCCCCSc1nc(NCCCCCCC)nc(NCCN2CCCCC2)n1 [S8N7 D4] | 3.8 |  |
| CCCCCCCCCCCCCCSc1nc(NCCCN2CCOCC2)nc(N(CCCCCCCCCCCC)CCCCCCCCCCCC)n1 [S14^2N12 D8] | 0.0 |  |
| CCCCCCCCCNc1nc(NCCN2CCCCC2)nc(SCCCCCCC)n1 [S7N9 D4] | 13.0 |  |
| CCCCCCCCCCCCCCCCNc1nc(NCCN2CCCC2)nc(SCCCCCCCCCC)n1 [S10N16 D3] | 8.8 |  |
